Test results: patent US9815851B2, “Pyrrolo carboxamides as modulators of orphan nuclear receptor RAR-related orphan receptor-gamma (RORγ, NR1F3) activity and for the treatment of chronic inflammatory and autoimmune diseases” (PHENEX PHARMACEUTICALS AG, priority 2011, dated 2017)
Like-named read-outs stand apart in the source and are kept apart here.

Experiments:
[1] = biological target: T1, RORγ ligand binding domain (LBD) (Homo sapiens, UniProt P51449); assay: TR-FRET Activity Assay (ligand sensing, RORγ-LBD / coactivator peptide interaction, LANCE); type: biochemical
T1 construct: made in house; host or cells: E. coli BL-21 (BL3), vector pDEST15
T1 sequence (P51449 269-508 limits assumed): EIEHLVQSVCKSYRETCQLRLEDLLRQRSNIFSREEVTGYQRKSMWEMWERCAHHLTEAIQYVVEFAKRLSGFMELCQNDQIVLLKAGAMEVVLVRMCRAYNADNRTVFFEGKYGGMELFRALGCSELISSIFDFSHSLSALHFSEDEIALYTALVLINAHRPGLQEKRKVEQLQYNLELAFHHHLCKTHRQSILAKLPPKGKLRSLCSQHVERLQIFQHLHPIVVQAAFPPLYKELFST

RORγ = biological target: T2, RORγ (UniProt P51449); assay: RORγ Gal4 Reporter Gene Assay in 293T cells (firefly and renilla luciferase); type: cell-based, human
T2 sequence (P51449 1-518): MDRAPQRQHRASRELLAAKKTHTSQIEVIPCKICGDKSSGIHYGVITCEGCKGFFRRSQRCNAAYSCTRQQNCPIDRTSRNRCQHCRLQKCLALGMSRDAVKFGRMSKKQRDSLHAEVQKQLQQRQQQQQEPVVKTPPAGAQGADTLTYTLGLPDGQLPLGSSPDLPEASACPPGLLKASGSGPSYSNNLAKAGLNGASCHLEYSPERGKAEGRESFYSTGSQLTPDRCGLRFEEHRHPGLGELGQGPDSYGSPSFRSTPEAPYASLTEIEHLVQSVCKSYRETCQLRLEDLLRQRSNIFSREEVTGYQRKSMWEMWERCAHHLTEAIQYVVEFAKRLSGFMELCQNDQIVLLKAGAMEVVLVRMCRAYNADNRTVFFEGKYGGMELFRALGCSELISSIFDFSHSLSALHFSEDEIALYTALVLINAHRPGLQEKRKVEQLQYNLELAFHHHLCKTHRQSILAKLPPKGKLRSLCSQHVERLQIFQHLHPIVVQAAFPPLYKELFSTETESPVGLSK

[2] = first value of the cell FRET/FF/REN, TR-FRET activity assay, read-out: pIC50 (FRET) (converted)
[3] = second value of the cell, Gal4 reporter gene assay in 293T cells, firefly luciferase
[4] = third value of the cell, Gal4 reporter gene assay in 293T cells, renilla normalised luciferase

SMILES	IC50 [1] [nM]	pIC50 (FF) (RORγ)	pIC50 (REN) (RORγ)	IC50 [1, 2] [nM]	pIC50 (FF) (RORγ; [3])	pIC50 (REN) (RORγ; [4])
Cc1c(C(=O)NCC(C)(C)O)cc(-c2cc(C3(C)CC3)nc(C(C)(C)C)n2)n1CC1CCCCC1 [17/355]	316	6.5/6.6/6.6	6.5/6.6/6.6	–	–	–
Cc1c(C(=O)NCC2(C)COC2)cc(-c2cc(C(C)(C)C)cc(C(C)(C)C)c2)n1CC1CCCCC1 [1/2]	126	6.9/7.5/7.4	6.9/7.5/7.4	–	–	–
Cc1c(C(=O)NCc2nc(C(=O)O)co2)cc(-c2cc(C(C)(C)C)c3c(c2)C2(CCO3)CC2)n1CC1CCCCC1 [17/16]	–	–	–	3980	6.1	6.0
Cc1c(C(=O)N[C@H]2CCOC2)cc(-c2cc(C(C)(C)C)cc(C3(C)CC3)c2)n1CC1CCCCC1 [17/65]	200	–	–	–	7.7	7.7
CCN(C(C)(C)C)S(=O)(=O)c1ccc(-c2cc(C(=O)NC3CCOCC3)c(C)n2CC2CCCCC2)cc1C(F)(F)F [17/85]	> 20000	<4.7/7.4/7.5	<4.7/7.4/7.5	–	–	–
Cc1c(C(=O)NC2CCOCC2)cc(-c2cc(F)c(NS(=O)(=O)C(C)(C)C)c(C(F)(F)F)c2)n1CC1CCCCC1 [17/248]	–	–	–	2510	6.4	7.3
Cc1c(C(=O)NCC2(O)CCOCC2)cc(-c2cc(C(C)(C)O)cc(C3(C)CC3)c2)n1CC1CCCCC1 [17/314]	–	–	–	1000	7.2	7.1
COC(C)(C)c1cc(-c2cc(C(=O)NC3CCOCC3)c(C)n2CC2CCCCC2)cc(C(C)NC(C)C)c1 (stereo not drawn) [17/303]	–	–	–	3980	6.3	6.4
Cc1c(C(=O)NC2COC2)cc(-c2cc(C(C)(C)C)cc(C(C)(C)C)c2)n1S(=O)(=O)N1CCC(C)CC1 [7/1]	–	–	–	316	6.7	6.8
Cc1c(C(=O)NCC2(O)CCSCC2)cc(-c2cc(C(C)(C)C)c3c(c2)C2(CCO3)CC2)n1CC1CCCCC1 [17/37]	–	–	–	1260	7.1	7.1
Cc1c(C(=O)NC2COC2)cc(-c2cc(C(=O)N(C)C(C)(C)C)cc(C(F)(F)F)c2)n1CC1CCCCC1 [15/1]	2000	5.7/6.6/6.7	5.7/6.6/6.7	–	–	–
Cc1c(C(=O)NCC(C)(C)O)cc(-c2cc(C(C)(C)C)c3c(c2)C2(CCO3)CC2)n1CC1CCCCC1 [1/39]	316	6.5/6.9/7.0	6.5/6.9/7.0	–	–	–
Cc1c(C(=O)NC2CCOCC2)cc(-c2ccc(S(=O)(=O)NC(C)(C)C)c(C(F)F)c2)n1CC1CCC1 [17/126]	–	–	–	316	6.7	6.9
Cc1c(C(=O)NC2COC2)cc(-c2cc(CN3CCOCC3)cc(C(C)(C)C)c2)n1CC1CCCCC1 [1/108]	–	–	–	7940	7.2	7.3
Cc1c(C(=O)NC2CC2)cc(-c2cc(C(C)(C)C)c3c(c2)C2(CCO3)CC2)n1CC1CCCCC1 [1/92]	–	–	–	200	7.0	6.9
COC(C)(C)CNC(=O)c1cc(-c2cc(C(C)(C)C)cc(C3(C)CC3)c2)n(CC2CCCCC2)c1C [17/68]	158	6.8/7.4/7.5	6.8/7.4/7.5	–	–	–
Cc1c(C(=O)NC2C[S+]([O-])C2)cc(-c2cc(C(C)(C)C)c3c(c2)C2(CCO3)CC2)n1CC1CCCCC1 (stereo not drawn) [17/25]	316	6.5/6.9/7.0	6.5/6.9/7.0	–	–	–
Cc1c(C(=O)NCC(C)(C)O)cc(-c2cc(C(C)(C)C)cc(C3(C)CC3)c2)n1CC1CCCCC1 [1/87]	316	6.5/7.2/7.2	6.5/7.2/7.2	–	–	–
Cc1c(C(=O)N[C@H]2C[C@H](C(=O)O)C2)cc(-c2cc(C(=O)N[C@@H](C)C(F)(F)F)cc(C3(C)CC3)c2)n1CC1CCCCC1 [17/358]	–	–	–	1000	6.3	6.2
Cc1c(C(=O)NCC2(O)CCS(=O)(=O)CC2)cc(-c2cc(C(C)(C)C)c3c(c2)C2(CCO3)CC2)n1CC1CCCCC1 [17/81]	631	6.2/7.1/7.1	6.2/7.1/7.1	–	–	–
Cc1c(C(=O)NCC2CCS(=O)(=O)CC2)cc(-c2cc(C(C)(C)C)c3c(c2)C2(CCO3)CC2)n1CC1CCCCC1 [17/10]	398	6.4/7.6/7.6	6.4/7.6/7.6	–	–	–
COCC(=O)NC(C)(C)CNC(=O)c1cc(-c2cc(C(C)(C)C)c3c(c2)C2(CCO3)CC2)n(CC2CCCCC2)c1C [17/124]	794	6.1/7.4/7.5	6.1/7.4/7.5	–	–	–
Cc1c(C(=O)NCC2(O)CCOCC2)cc(-c2cc(C(C)(C)C)cc(C3(C)CC3)c2)n1CC1CCCCC1 [17/64]	–	–	–	316	7.8	7.7
Cc1c(C(=O)NC2CCOCC2)cc(-c2ccc(S(=O)(=O)NC(C)(C)C)c(C(F)(F)F)c2)n1CC1CC(F)(F)C1 [17/133]	–	–	–	1260	6.3	6.3
CCn1cc(-c2ccc(-c3cc(C(=O)NC4CCOCC4)c(C)n3CC3CCCCC3)cc2C(C)(C)C)cn1 [26/3]	–	–	–	794	6.6	6.8
Cc1c(C(=O)NC2CCOCC2)cc(-c2ccc(CN3CCOCC3(C)C)c(C(F)(F)F)c2)n1CC1CCCCC1 [Example 34, 1-(Cyclohexylmethyl)-5-(4-((3,3-dimethylmorpholino)methyl)-3-(trifluoromethyl)phenyl)-2-methyl-N-(tetrahydro-2H-pyran-4-yl)-1H-pyrrole-3-carboxamide]	–	–	–	398	6.8	7.1
Cc1c(C(=O)NCCc2nn[nH]n2)cc(-c2ccc(S(=O)(=O)NC(C)(C)C)c(C(C)(C)C)c2)n1CC1CCCCC1 [17/334]	–	–	–	1260	5.8	5.9
Cc1c(C(=O)NCC(C)(C)O)cc(-c2cc(C(C)(C)O)cc(C3(C)CC3)c2)n1CC1CCCCC1 [17/313]	1000	6.0/6.8/6.8	6.0/6.8/6.8	–	–	–
